Laboratory results reported in PubChem BioAssay AID248 (DTP/NCI, 2004).
Several values for one entry are separate records, joined by “and”; a condition that tells them apart may be missing. Equal values may be shown once. Toxic doses and inconclusive results are not listed. Rule as the data show it: active = T/C of 150% or more; inactive = T/C below 125%.

Test system: L1210 leukemia ip in BDF1 mice, survival T/C
Assay: NCI In Vivo Anticancer Drug Screen. Data for tumor model L1210 Leukemia (intraperitoneal) in B6D2F1 (BDF1) mice
Settings: endpoint: mean survival time, higher = longer survival
Method: The antitumor activity of compounds was measured in mice bearing transplantable tumors. Survival or tumor size were measured and the results are expressed as the measurement made in the treated group (T) divided by the measurement made in the vehicle treated control group (C). The tumor model used in this assay is L1210 Leukemia (intraperitoneal) in B6D2F1 (BDF1) mice

[1] = dose: 50.0 mg/kg/injection, schedule: Q01DX001 (ip), vehicle: carboxymethylcellulose (CMC)
[2] = dose: 100.0 mg/kg/injection, schedule: Q01DX001 (ip), vehicle: carboxymethylcellulose (CMC)
[3] = dose: 200.0 mg/kg/injection, schedule: Q01DX001 (ip), vehicle: carboxymethylcellulose (CMC)
[4] = dose: 400.0 mg/kg/injection, schedule: Q01DX001 (ip), vehicle: carboxymethylcellulose (CMC)
[5] = dose: 50.0 mg/kg/injection, schedule: Q04DX003 (ip), vehicle: Klucel (hydroxypropylcellulose) (HPC)
[6] = dose: 100.0 mg/kg/injection, schedule: Q01DX009 (ip), vehicle: saline
[7] = dose: 100.0 mg/kg/injection, schedule: Q04DX003 (ip), vehicle: Klucel (hydroxypropylcellulose) (HPC)
[8] = dose: 100.0 mg/kg/injection, schedule: Q04DX003 (ip), vehicle: saline
[9] = dose: 200.0 mg/kg/injection, schedule: Q01DX009 (ip), vehicle: saline
[10] = dose: 200.0 mg/kg/injection, schedule: Q04DX003 (ip), vehicle: Klucel (hydroxypropylcellulose) (HPC)
[11] = dose: 200.0 mg/kg/injection, schedule: Q04DX003 (ip), vehicle: saline
[12] = dose: 400.0 mg/kg/injection, schedule: Q01DX009 (ip), vehicle: saline
[13] = dose: 400.0 mg/kg/injection, schedule: Q04DX003 (ip), vehicle: saline
[14] = dose: 400.0 mg/kg/injection, schedule: Q04DX003 (ip), vehicle: Klucel (hydroxypropylcellulose) (HPC)
[15] = dose: 100.0 mg/kg/injection, schedule: Q01DX009 (ip), vehicle: Klucel (hydroxypropylcellulose) (HPC)
[16] = dose: 200.0 mg/kg/injection, schedule: Q01DX009 (ip), vehicle: Klucel (hydroxypropylcellulose) (HPC)
[17] = dose: 400.0 mg/kg/injection, schedule: Q01DX009 (ip), vehicle: Klucel (hydroxypropylcellulose) (HPC)
[18] = dose: 100.0 mg/kg/injection, schedule: Q01DX001 (ip), vehicle: saline
[19] = dose: 200.0 mg/kg/injection, schedule: Q01DX001 (ip), vehicle: saline
[20] = dose: 100.0 mg/kg/injection, schedule: Q01DX009 (ip), vehicle: saline with Tween-80
[21] = dose: 200.0 mg/kg/injection, schedule: Q01DX009 (ip), vehicle: saline with Tween-80
[22] = dose: 100.0 mg/kg/injection, schedule: Q01DX001 (ip), vehicle: saline with Tween-80
[23] = dose: 200.0 mg/kg/injection, schedule: Q01DX001 (ip), vehicle: saline with Tween-80
[24] = dose: 400.0 mg/kg/injection, schedule: Q01DX001 (ip), vehicle: saline with Tween-80

Measured: T/C

O=C(N/N=C/c1ccc2c(c1)OCO2)c1ccc([N+](=O)[O-])cc1
inactive: [1] 97 % of control | [2] 92 % of control | [3] 94 % of control | [4] 92 % of control

O=S(=O)(O)c1ccc(O)cc1
inactive: [5] 98 % of control | [6] 110 % of control | [7] 104 % of control | [8] 114 % of control | [9] 107 % of control | [10] 124 % of control | [11] 97 % of control | [12] 101 % of control | [13] 101 % of control

O=C1C(Cl)=C(Cl)C(=O)c2ccccc21
inactive: dose: 0.5 mg/kg/injection, schedule: Q01DX009 (ip), vehicle: Klucel (hydroxypropylcellulose) (HPC) 108 % of control | dose: 1.0 mg/kg/injection, schedule: Q01DX009 (ip), vehicle: Klucel (hydroxypropylcellulose) (HPC) 110 % of control | dose: 1.0 mg/kg/injection, schedule: Q04DX003 (ip), vehicle: Klucel (hydroxypropylcellulose) (HPC) 105 % of control | dose: 2.0 mg/kg/injection, schedule: Q01DX009 (ip), vehicle: Klucel (hydroxypropylcellulose) (HPC) 108 % of control | dose: 2.0 mg/kg/injection, schedule: Q04DX003 (ip), vehicle: Klucel (hydroxypropylcellulose) (HPC) 108 % of control | dose: 4.0 mg/kg/injection, schedule: Q04DX003 (ip), vehicle: Klucel (hydroxypropylcellulose) (HPC) 110 % of control | dose: 5.0 mg/kg/injection, schedule: Q01DX009 (ip), vehicle: saline with Tween-80 93 % of control | dose: 10.0 mg/kg/injection, schedule: Q01DX009 (ip), vehicle: saline with Tween-80 97 % of control | dose: 20.0 mg/kg/injection, schedule: Q01DX009 (ip), vehicle: saline with Tween-80 97 % of control

Cc1cc(C)n(/N=C/c2ccc3c(c2)CCC3)c(=O)c1C#N
inactive: [10] 95 % of control | [14] 90 % of control

O=C(O)c1cc(-c2ccccc2)nc2c([N+](=O)[O-])cccc12
inactive: dose: 75.0 mg/kg/injection, schedule: Q01DX001 (ip), vehicle: acetone 95 % of control | dose: 150.0 mg/kg/injection, schedule: Q01DX001 (ip), vehicle: acetone 92 % of control | dose: 300.0 mg/kg/injection, schedule: Q01DX001 (ip), vehicle: acetone 108 % of control

CSc1ccccc1C=O
inactive: [15] 114 % of control | [7] 94 % of control | [16] 105 % of control | [10] 95 % of control | [17] 106 % of control | [14] 95 % of control

CCOc1ccn(C2OC(COC(C)=O)C(OC(C)=O)C(OC(C)=O)C2Nc2ccc([N+](=O)[O-])cc2[N+](=O)[O-])c(=O)n1 (centres undefined)
inactive: [18] 103 % of control | [19] 100 % of control | dose: 400.0 mg/kg/injection, schedule: Q01DX001 (ip), vehicle: saline 97 % of control

O=C(O)c1ccc(NC(C[N+](=O)[O-])C(F)(F)C(F)(F)C(F)(F)F)cc1 (centres undefined)
inactive: dose: 25.0 mg/kg/injection, schedule: Q04DX003 (ip), vehicle: Klucel (hydroxypropylcellulose) (HPC) 103 % of control | [5] 93 % of control | dose: 100.0 mg/kg/injection, schedule: Q01DX009 (ip), vehicle: saline sonified 95 % of control | [7] 103 % of control and 115 % of control | dose: 200.0 mg/kg/injection, schedule: Q01DX009 (ip), vehicle: saline sonified 86 % of control | [10] 102 % of control | dose: 400.0 mg/kg/injection, schedule: Q01DX009 (ip), vehicle: saline sonified 88 % of control | [14] 100 % of control

C#CCN(C)Cc1ccccc1
inactive: dose: 25.0 mg/kg/injection, schedule: Q01DX009 (ip), vehicle: saline 94 % of control | dose: 50.0 mg/kg/injection, schedule: Q01DX009 (ip), vehicle: saline 89 % of control | [6] 87 % of control | [8] 103 % of control | [9] 98 % of control | [11] 103 % of control | [13] 97 % of control

C=CCN(CC=C)c1nc(Cl)nc(Cl)n1
inactive: [1] 106 % of control | [2] 98 % of control | dose: 100.0 mg/kg/injection, schedule: Q04DX002 (ip), vehicle: Klucel (hydroxypropylcellulose) (HPC) 105 % of control | dose: 200.0 mg/kg/injection, schedule: Q04DX002 (ip), vehicle: Klucel (hydroxypropylcellulose) (HPC) 101 % of control

CCc1cc(C)cc(OC(=O)Nc2ccc(Cl)c(Cl)c2)c1
inactive: [20] 97 % of control | [7] 91 % of control | [21] 92 % of control | [10] 90 % of control | dose: 400.0 mg/kg/injection, schedule: Q01DX009 (ip), vehicle: saline with Tween-80 94 % of control | [14] 91 % of control

c1ccc(COCc2ccc(C3N(c4ccccc4)CCN3c3ccccc3)o2)cc1
inactive: dose: 100.0 mg/kg/injection, schedule: Q04DX002 (ip), vehicle: saline with Tween-80 96 % of control | dose: 200.0 mg/kg/injection, schedule: Q04DX002 (ip), vehicle: saline with Tween-80 96 % of control | dose: 400.0 mg/kg/injection, schedule: Q04DX002 (ip), vehicle: saline with Tween-80 104 % of control

Cc1cc(=O)[nH]c2ccc(Cc3ccc(N)cc3)cc12
inactive: [2] 95 % of control | [3] 96 % of control | [4] 98 % of control

CCCCCC[Si]CCCCCC
inactive: [22] 94 % of control | [23] 100 % of control | [24] 94 % of control

CC(C)=CCSc1ncnc2nc[nH]c12
inactive: dose: 31.0 mg/kg/injection, schedule: Q01DX Z (ip), vehicle: other 91 % of control | dose: 62.0 mg/kg/injection, schedule: Q01DX Z (ip), vehicle: other 117 % of control | dose: 125.0 mg/kg/injection, schedule: Q01DX Z (ip), vehicle: other 103 % of control | dose: 250.0 mg/kg/injection, schedule: Q01DX Z (ip), vehicle: other 109 % of control

N#CC1CC2([N+](=O)[O-])c3ccccc3C1c1ccccc12 (centres undefined)
inactive: [15] 96 % of control | [7] 105 % of control | [8] 105 % of control | [16] 102 % of control | [10] 108 % of control | [11] 108 % of control | [17] 94 % of control | [14] 102 % of control | [13] 102 % of control

CCC1(O)C(=O)OCc2c1ccn(Cc1ccc3ccccc3c1)c2=O (centres undefined)
inactive: dose: 25.0 mg/kg/injection, schedule: Q01DX001 (ip), vehicle: saline 92 % of control | dose: 50.0 mg/kg/injection, schedule: Q01DX001 (ip), vehicle: saline 97 % of control | [18] 96 % of control | [19] 94 % of control

CN(C)CC1C2C=CC(C2)C1CN(C)C (centres undefined)
inactive: [8] 96 % of control | [11] 91 % of control

O=C(O)CCN1C(=O)CCC1=O
inactive: [6] 91 % of control | dose: 100.0 mg/kg/injection, schedule: Q04DX003 (ip), vehicle: saline sonified 105 % of control | [9] 94 % of control | dose: 200.0 mg/kg/injection, schedule: Q04DX003 (ip), vehicle: saline sonified 92 % of control | [12] 105 % of control | dose: 400.0 mg/kg/injection, schedule: Q04DX003 (ip), vehicle: saline sonified 95 % of control

COC(=O)C(C)C1CCC2C3=CC=C4CC(OC(C)=O)CCC4(C)C3CCC21C (centres undefined)
inactive: [22] 93 % of control | [23] 98 % of control | [24] 104 % of control

C#CC(C)(C)C(C(=O)OCC)C(=O)OCC
inactive: dose: 75.0 mg/kg/injection, schedule: Q01DX009 (ip), vehicle: Klucel (hydroxypropylcellulose) (HPC) 102 % of control | dose: 150.0 mg/kg/injection, schedule: Q01DX009 (ip), vehicle: Klucel (hydroxypropylcellulose) (HPC) 100 % of control | dose: 300.0 mg/kg/injection, schedule: Q01DX009 (ip), vehicle: Klucel (hydroxypropylcellulose) (HPC) 97 % of control

c1ccc(CNc2ncn[nH]2)cc1
inactive: dose: 50.0 mg/kg/injection, schedule: Q01DX009 (ip), vehicle: saline with Tween-80 95 % of control | [20] 103 % of control | [21] 95 % of control
